The values below come from article PMC10447463, “Data-mining unveils structure–property–activity correlation of viral infectivity enhancing self-assembling peptides” (Nature Communications, 2023).

Data set [1] is classed as physicochemical. The arrangement: key to Fibril / Fibril Formation / TEM 2cat / Fibril: 1 = fibrils present; 0 non-fibrillar structures. As to conditions: for Fibril / Fibril Formation: 1 mg/mL, uranyl acetate stain, qualitative.
Data set [2] has as its system HIV-1 infection of TZM-bl cells. Briefly: HIV-1 infectivity enhancement assay, β-galactosidase luminescence. The format is cell-based. The following applies: for Rel-EFC: infection relative to EF-C (QCKIKQIINMWQ = 1); for Log10 Infection Rel EFC: log10 of infection relative to EF-C; for Log Infectivity: Log10 infection relative to EF-C, TZM-bl cells, asymmetric std dev errors; for Log10 Infection Rel EF-C: HIV-1 infection of TZM-bl cells; for Log10 of Rel to EFC (Feb2021): Log10 of infection relative to EF-C, all peptides of FigS16; for Abs. Inf.: absolute infection signal, HIV-1 on TZM-bl cells, β-galactosidase luminescence; for Log10 Inf. rel. to EF-C: log10 of HIV-1 infection of TZM-bl cells relative to EF-C (EF-C = 0).

Data set [3] is described as follows: Turbidity, derived count rate of scattered light. The format is physicochemical. As to conditions: for Count Rate / kcps: derived count rate of scattered light at 633 nm, 173°, from zeta-potential measurement, 0.1 mg/mL in 1 mM KCl after 1 d at 1 mg/mL in PBS, turbidity / microscopic aggregation, mean of triplicate. The gist of the method:
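One-day room-temperature aggregation at 1 mg/mL in PBS (pH 7.4) preceded measurement; samples then went into 1 mM KCl. Triplicates per sample, two independent experiments averaged.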

[4] abbreviates: TEM, 1 = fibrils present, 0 = non-fibrillar.
Setting [5] is: TEM, 1 = fibrils present, 0 = non-fibrillar structures.
Setting [6] is: category: fibrils present or non-fibrillar.
Setting [7] is: Fig. S7 panel A (plotted against β-sheet content).
Where [8] appears, read: Log10 of infection rate relative to EF-C, Figure 3A source data.
Setting [9] is: infection rate relative to EF-C, log10, data of Figure 2D.
Where [10] appears, read: infection rate relative to EF-C, log10, source data of Figure 2C.
The mark [11] stands for this setting: Log10 of derived count rate of scattered light (turbidity).
The mark [12] stands for this setting: turbidity, Log10 of derived count rate of scattered light, Figure 3A source data.
[13] abbreviates: turbidity, log10 of derived count rate of scattered light.

Read-outs that look alike come from different tables or passages of the source.

As to CKIKIQIII, the “TEM 2cat” value in data set [1] (Fig S10 panel D) and in data set [1] (setting [6]) was 1 in each case. The “Fibril / Fibril Formation” value in data set [1] (TEM) was 1. In addition, the Fibril in data set [1] (setting [4]) and in data set [1] (setting [5]) was 1 each time. The Rel-EFC in data set [2] (1.3 µM peptide) is recorded as 0,98. In data set [2] (1.3 µM peptide), the “Log10 Infection Rel EFC” value is on record as -0,01. Also, the “n-fold Infection, 1.3 µM” value in data set [2] (1.3 µM peptide, n-fold infection) is 41 n-fold. The “Log Infectivity” value in data set [2] (setting [7]) is -0.01045. Further, the “Log10 Infection Rel EF-C” value in data set [2] (setting [8]) is listed as -0.01; in data set [2] (setting [9]) it was -0.01045; in data set [2] (setting [10]), -0.01045. In data set [2], the “Log10 of Rel to EFC (Feb2021)” value is listed as -0.01. For the same substance, in data set [2], the “Abs. Inf.” value is reported as 22150. In addition, the “Log10 Inf. rel. to EF-C” value in data set [2] is on record as -0.01045. The “Log10 Count Rate” value in data set [3] (setting [11]), in data set [3] (setting [12]) and in data set [3] (setting [13]) was 3.695 each time. For the same substance, the “Count Rate / kcps” value in data set [3] was 4953 kcps.

With KIKIQINMW, the “TEM 2cat” value in data set [1] (Fig S10 panel D) and in data set [1] (setting [6]) was 1 throughout. Further, the “Fibril / Fibril Formation” value in data set [1] (TEM) is 1. Further, the Fibril in data set [1] (setting [4]) and in data set [1] (setting [5]) was 1 in each case. Moreover, the Rel-EFC in data set [2] (1.3 µM peptide) is reported as 2,16. Besides, the “Log10 Infection Rel EFC” value in data set [2] (1.3 µM peptide) was 0,33. In data set [2] (setting [7]), the “Log Infectivity” value is on record as 0.3339. Also, the “Log10 Infection Rel EF-C” value in data set [2] (setting [8]) came to 0.33; in data set [2] (setting [9]), 0.3339; in data set [2] (setting [10]), 0.3339. For the same substance, in data set [2], the “Log10 of Rel to EFC (Feb2021)” value worked out at 0.33. In addition, the “Log10 Inf. rel. to EF-C” value in data set [2] is 0.3339. Further, the “Log10 Count Rate” value in data set [3] (setting [11]), in data set [3] (setting [12]) and in data set [3] (setting [13]) was 2.38 throughout. Besides, the “Count Rate / kcps” value in data set [3] stood at 240 kcps.

Consider CRFRVPF, for which the “TEM 2cat” value is 0 in data set [1] (Fig S10 panel D) and 0 in data set [1] (FigS12 panel A, fibril category by TEM). Besides, the Fibril in data set [1] (Fig S10 panel E) worked out at 0; in data set [1] (FigS12 panel B, TEM), 0; in data set [1] (setting [4]), 0; in data set [1] (setting [5]) it was 0. In addition, in data set [1] (TEM), the “Fibril / Fibril Formation” value worked out at 0. Moreover, in data set [2] (1.3 µM peptide), the Rel-EFC is given as 0,02. Also, in data set [2] (1.3 µM peptide), the “Log10 Infection Rel EFC” value is -1,7. Also, the “Log Infectivity” value in data set [2] (setting [7]) is -1.701; in data set [2] (Fig. S7 panel B (plotted against CR), rounded to two decimals), -1.7. Besides, the “Log10 Infection Rel EF-C” value was -1.7 in data set [2] (setting [8]), -1.701 in data set [2] (setting [9]) and -1.701 in data set [2] (setting [10]). Moreover, the “Abs. Inf.” value in data set [2] was found to be 376.7. The “Log10 Inf. rel. to EF-C” value in data set [2] is listed as -1.701. The “Log10 Count Rate” value in data set [3] (setting [11]), in data set [3] (setting [12]) and in data set [3] (setting [13]) was 1.869 throughout. The “Count Rate / kcps” value in data set [3] is on record as 74 kcps.
